Our source for the EC50 values is patent publication US11944622B2 (Annapurna Bio, Inc., priority 2018, dated 2024).

This experiment deals with T1, APJ Receptor (Homo sapiens, UniProt P35414).
T1 sequence (P35414 1-380): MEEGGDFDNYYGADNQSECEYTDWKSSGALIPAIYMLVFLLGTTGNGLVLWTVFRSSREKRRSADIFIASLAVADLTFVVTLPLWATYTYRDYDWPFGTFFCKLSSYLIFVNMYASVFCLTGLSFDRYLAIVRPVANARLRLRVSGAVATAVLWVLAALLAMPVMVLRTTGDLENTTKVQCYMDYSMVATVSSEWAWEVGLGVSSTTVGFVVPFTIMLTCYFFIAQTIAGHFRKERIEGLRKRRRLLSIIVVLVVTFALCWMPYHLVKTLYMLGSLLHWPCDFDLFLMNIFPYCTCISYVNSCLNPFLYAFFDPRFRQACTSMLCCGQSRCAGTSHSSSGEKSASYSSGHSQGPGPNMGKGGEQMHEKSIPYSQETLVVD
Kind of experiment: APJ cAMP assay (DiscoverX enzyme fragment complementation; inhibition of forskolin-stimulated cAMP). In kind it is cell-based. To be noted: CHO-K1 cell line stably expressing the APJ Receptor; EC80 forskolin; 30 minutes at 37° C.; read-out: Potency Range (APJ cAMP EC50). The essentials:
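CHO-K1 cells stably expressing APJ incubated with compound plus EC80 forskolin for 30 min at 37° C. cAMP detected by β-galactosidase enzyme fragment complementation with chemiluminescent read-out; % activity calculated relative to vehicle and maximal controls.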
For orientation: EC50 means the midpoint of the concentration-response curve. With `CCOc1cccc(-c2nc3nc(OC4CC4)c(NS(C)(=O)=O)nc3n2-c2c(OC)cccc2OC)n1` [Example 89, N-(5-Cyclopropoxy-1-(2,6-dimethoxyphenyl)-2-(6-ethoxypyridin-2-yl)-1H-imidazo[4,5-b]pyrazin-6-yl)methanesulfonamide], the EC50 fell in the range of 100 to 10000 nM.

Turning to `COc1cccc(OC)c1-n1c(-c2cncc(C)c2)nc2ncc(NS(C)(=O)=O)nc21` [Example 132, N-(1-(2,6-dimethoxyphenyl)-2-(5-methylpyridin-3-yl)-1H-imidazo[4,5-b]pyrazin-6-yl)methanesulfonamide], the EC50 is 100 to 10000 nM.

As to `CCOc1cccc(-c2nc3ncc(NS(=O)(=O)CC(C)(C)O)nc3n2-c2c(OC)cccc2OC)n1` [Example 70], the EC50 is 1 to 100 nM.

Consider `CCOc1cccc(-c2nc3ncc(NS(=O)(=O)c4ccccc4)nc3n2-c2c(OC)cccc2OC)n1` [Example 5, N-(1-(2,6-dimethoxyphenyl)-2-(6-ethoxypyridin-2-yl)-1H-imidazo[4,5-b]pyrazin-6-yl)benzenesulfonamide], for which the 50% effective concentration (EC50) is less than 1 nM.

`COc1cccc(-c2nc3ncc(NS(C)(=O)=O)nc3n2-c2c(OC)cccc2OC)n1` [Example 51, N-(1-(2,6-dimethoxyphenyl)-2-(6-methoxypyridin-2-yl)-1H-imidazo[4,5-b]pyrazin-6-yl)methanesulfonamide]: the 50% effective concentration (EC50) was in the range of 1 to 100 nM.

In the case of `CCOc1cccc(-c2nc3nc(Cl)c(NS(=O)(=O)Cc4ccc(C)c(F)c4)nc3n2-c2c(OC)cccc2OC)n1` [Example 107, N-(5-Chloro-1-(2,6-dimethoxyphenyl)-2-(6-ethoxypyridin-2-yl)-1H-imidazo[4,5-b]pyrazin-6-yl)-1-(3-fluoro-4-methylphenyl)methanesulfonamide], the EC50 is less than 1 nM.

Take `C=Cc1nc2nc(-c3cccc(OCC)n3)n(-c3c(OC)cccc3OC)c2nc1NS(C)(=O)=O` [Example 137, N-(1-(2,6-Dimethoxyphenyl)-2-(6-ethoxypyridin-2-yl)-5-vinyl-1H-imidazo[4,5-b]pyrazin-6-yl)methanesulfonamide]: the EC50 lay in the range of 1 to 100 nM.

For `CCOc1cccc(-c2nc3nc(O)c(NS(C)(=O)=O)nc3n2-c2c(OC)cccc2OC)n1` [Example 135, N-(1-(2,6-Dimethoxyphenyl)-2-(6-ethoxypyridin-2-yl)-5-hydroxy-1H-imidazo[4,5-b]pyrazin-6-yl)methanesulfonamide], the EC50 lay in the range of 1 to 100 nM.

`CCOc1cccc(-c2nc3ncc(NS(=O)(=O)C4CCC4)nc3n2-c2c(OC)cccc2OC)n1` [Example 31, N-(1-(2,6-dimethoxyphenyl)-2-(6-ethoxypyridin-2-yl)-1H-imidazo[4,5-b]pyrazin-6-yl)cyclobutanesulfonamide]: the EC50 was in the range of 1 to 100 nM.

As for `CCOc1cccc(-c2nc3ncc(NCc4ccccc4)nc3n2-c2c(OC)cccc2OC)n1` [Example 13, N-benzyl-1-(2,6-dimethoxyphenyl)-2-(6-ethoxypyridin-2-yl)-1H-imidazo[4,5-b]pyrazin-6-amine], the EC50 was in the range of 1 to 100 nM.

`CCOc1cccc(-c2nc3ncc(NS(C)(=O)=O)nc3n2C(CC)CC)n1` [Example 58, N-(2-(6-ethoxypyridin-2-yl)-1-(pentan-3-yl)-1H-imidazo[4,5-b]pyrazin-6-yl)methanesulfonamide]: the EC50 was 1 to 100 nM.

In the case of `CCOc1cccc(-c2nc3ncc(NS(=O)(=O)N4CCOCC4)nc3n2-c2c(OC)cccc2OC)n1` [Example 37, N-(1-(2,6-dimethoxyphenyl)-2-(6-ethoxypyridin-2-yl)-1H-imidazo[4,5-b]pyrazin-6-yl)morpholine-4-sulfonamide], the EC50 is less than 1 nM.

`CCOc1cccc(-c2nc3nccnc3n2-c2c(OC)cccc2OC)n1` [Example 18, 1-(2,6-dimethoxyphenyl)-2-(6-ethoxypyridin-2-yl)-1H-imidazo[4,5-b]pyrazine]: the EC50 is 100 to 10000 nM.

Turning to `COc1cccc(-c2nc3ncc(NS(=O)(=O)c4ccccn4)nc3n2-c2c(OC)cccc2OC)n1` [Example 52, N-(1-(2,6-dimethoxyphenyl)-2-(6-methoxypyridin-2-yl)-1H-imidazo[4,5-b]pyrazin-6-yl)pyridine-2-sulfonamide], the EC50 was in the range of 1 to 100 nM.

As to `CCOc1cccc(-c2nc3ncc(NS(=O)(=O)c4ncccn4)nc3n2-c2c(OC)cccc2OC)n1` [Example 41, N-(1-(2,6-dimethoxyphenyl)-2-(6-ethoxypyridin-2-yl)-1H-imidazo[4,5-b]pyrazin-6-yl)pyrimidine-2-sulfonamide], the EC50 was in the range of 1 to 100 nM.

Regarding `CCOc1cccc(-c2nc3ncc(NCC4CC4)nc3n2-c2c(OC)cccc2OC)n1` [Example 67, N-(cyclopropylmethyl)-1-(2,6-dimethoxyphenyl)-2-(6-ethoxypyridin-2-yl)-1H-imidazo[4,5-b]pyrazin-6-amine], the EC50 is 1 to 100 nM.

With `CCOc1cccc(-c2nc3ncc(NS(=O)(=O)Cc4ncc(C)cn4)nc3n2-c2c(OC)cccc2OC)n1` [Example 80, N-(1-(2,6-dimethoxyphenyl)-2-(6-ethoxypyridin-2-yl)-1H-imidazo[4,5-b]pyrazin-6-yl)-1-(5-methylpyrimidin-2-yl)methanesulfonamide], the EC50 was less than 1 nM.

With `CCOc1cccc(-c2nc3nc(Cl)c(NS(=O)(=O)C4CCOCC4)nc3n2-c2c(OC)cccc2OC)n1` [Example 111, N-(5-Chloro-1-(2,6-dimethoxyphenyl)-2-(6-ethoxypyridin-2-yl)-1H-imidazo[4,5-b]pyrazin-6-yl)tetrahydro-2H-pyran-4-sulfonamide], the EC50 was 1 to 100 nM.

For the molecule `CCOc1cccc(-c2nc3ncc(NS(C)(=O)=O)nc3n2-c2c(OC)cccc2OC)n1` [Example 2, N-(1-(2,6-dimethoxyphenyl)-2-(6-ethoxypyridin-2-yl)-1H-imidazo[4,5-b]pyrazin-6-yl)methanesulfonamide], the EC50 lay within 1 to 100 nM.

With `CCOc1cccc(-c2nc3nnc(NS(=O)(=O)Cc4ncccn4)cc3n2-c2c(OC)cccc2OC)n1` [Example 127, N-(5-(2,6-Dimethoxyphenyl)-6-(6-ethoxypyridin-2-yl)-5H-imidazo[4,5-c]pyridazin-3-yl)-1-(pyrimidin-2-yl)methanesulfonamide], the EC50 was less than 1 nM.

`CCOc1cccc(-c2nc3ncc(NS(=O)(=O)C4CC4)nc3n2-c2c(OC)cccc2OC)n1` [Example 22, N-(1-(2,6-dimethoxyphenyl)-2-(6-ethoxypyridin-2-yl)-1H-imidazo[4,5-b]pyrazin-6-yl)cyclopropanesulfonamide]: the EC50 lay in the range of 1 to 100 nM.

In the case of `CCOc1cccc(-c2nc3nc(Cl)c(NS(=O)(=O)c4ccc(C(F)F)cc4)nc3n2-c2c(OC)cccc2OC)n1` [Example 106, N-(5-Chloro-1-(2,6-dimethoxyphenyl)-2-(6-ethoxypyridin-2-yl)-1H-imidazo[4,5-b]pyrazin-6-yl)-4-(difluoromethyl)benzenesulfonamide], the concentration for a half-maximal effect (EC50) lay in the range of 1 to 100 nM.

For `CCOc1cccc(-c2nc3nc(Cl)c(NS(=O)(=O)C4CC4)nc3n2-c2c(OC)cncc2OC)n1` [Example 118, N-(5-Chloro-1-(3,5-dimethoxypyridin-4-yl)-2-(6-ethoxypyridin-2-yl)-1H-imidazo[4,5-b]pyrazin-6)cyclopropanesulfonamide], the concentration giving a half-maximal response (EC50) was in the range of 1 to 100 nM.

As to `CCOc1cccc(-c2nc3nnc(NS(=O)(=O)Cc4ncc(Cl)cn4)cc3n2-c2c(OC)cccc2OC)n1` [Example 144, 1-(5-Chloropyrimidin-2-yl)-N-(7-(2,6-dimethoxyphenyl)-8-(6-ethoxypyridin-2-yl)-7H-imidazo[4,5-c]pyridazinyl)methanesulfonamide], the EC50 is less than 1 nM.

With `CCOc1cccc(-c2nc3ncc(NS(C)(=O)=O)nc3n2-c2c(OC)ccnc2OC)n1` [Example 68, N-(1-(2,4-dimethoxypyridin-3-yl)-2-(6-ethoxypyridin-2-yl)-1H-imidazo[4,5-b]pyrazin-6-yl)methanesulfonamide], the EC50 lay within 1 to 100 nM.

Take `COc1cccc(OC)c1-n1c(-c2cccc(OC(F)(F)F)n2)nc2ncc(NS(C)(=O)=O)nc21` [Example 56, N-(1-(2,6-dimethoxyphenyl)-2-(6-(trifluoromethoxy)pyridin-2-yl)-1H-imidazo[4,5-b]pyrazin-6-yl)methanesulfonamide]: the EC50 fell in the range of 100 to 10000 nM.

As to `COc1cccc(OC)c1-n1c(-c2ccc(C)o2)nc2ncc(NS(C)(=O)=O)nc21` [Example 131, N-(1-(2,6-dimethoxyphenyl)-2-(5-methylfuran-2-yl)-1H-imidazo[4,5-b]pyrazin-6-yl)methanesulfonamide], the half-maximal effective concentration (EC50) lay within 1 to 100 nM.

Turning to `CCOc1cccc(-c2nc3nc(NS(=O)(=O)CCC4CC4)cnc3n2-c2c(OC)cccc2OC)n1` [Example 44], the EC50 is less than 1 nM.

On to `CCOCc1nc2ncc(NS(=O)(=O)c3ccccc3)nc2n1-c1c(OC)cccc1OC` [Example 57, N-(1-(2,6-dimethoxyphenyl)-2-(ethoxymethyl)-1H-imidazo[4,5-b]pyrazin-6-yl)benzenesulfonamide], for which the EC50 fell in the range of 100 to 10000 nM.

In the case of `CCOc1cccc(-c2nc3nc(Cl)c(NS(=O)(=O)Cc4ncc(C)cn4)nc3n2-c2c(OC)cccc2OC)n1` [Example 142, N-(5-Chloro-1-(2,6-dimethoxyphenyl)-2-(6-ethoxypyridin-2-yl)-1H-imidazo[4,5-b]pyrazin-6-yl)-1-(5-methylpyrimidin-2-yl)methanesulfonamide], the EC50 is less than 1 nM.

As to `CCOc1cccc(-c2nc3ncc(NS(=O)(=O)C[C@@H]4CCN(C)C(=O)C4)nc3n2-c2c(OC)cccc2OC)n1` [Example 72, (R)—N-(1-(2,6-dimethoxyphenyl)-2-(6-ethoxypyridin-2-yl)-1H-imidazo[4,5-b]pyrazin-6-yl)-1-(1-methyl-2-oxopiperidin-4-yl)methanesulfonamide], the EC50 was less than 1 nM.
